{
  "source": "patent US10376486B2",
  "about": "“Compositions and methods for reactivating latent viral infections” (priority 2014, dated 2019)",
  "key": {"[1]": {"system": "PKCδ/θ-IκBα/ε-NF-κB signaling", "test": "Western blot of PKC isoforms, IκB isoforms and NF-κB/p65", "format": "cell-based", "conditions": "J-Lat A1 cells", "description": "Western blot analysis was performed to detect the expression of PKC isoforms, IκB isoforms, as well as expression of NF-κB/p65.\nWhole cell protein extracts were prepared with RIPA buffer containing proteinase inhibitors and phosphatase inhibitors (Sigma). Expression of the isoforms of PKC protein or NF-κB/p65 was evaluated using the PKC Isoform Sampler Antibody Kit (Cell Signaling, 9960S) or anti-NF-κB/p65 (Abcam). The level of phosphorylation of PKC was determined using anti-Phospho-Ser664-PKCδ, anti-Phospho-Ser643/676 PKCδ or anti-Phospho-T538-PKCθ (Millipore), and the level of phosphorylation of IκB was determined using p-IκBα(Ser32), p-IκBβ (Thr19/Ser23) or p-IκBε(Ser18/22) antibodies (Millipore)."}, "[2]": {"system": "J-Lat A1 cells, U1 cells, primary CD4+ T cells", "test": "Cell viability by MTT assay", "format": "cell-based", "conditions": "J-Lat A1 and U1 cell lines, 12 nM PEP005, 24 hours", "description": "(§1) FIG. 7: PEP005 causes minimal cytotoxicity and T cell proliferation. To evaluate the impact of PEP005 on the cell viability, U1 cells (A), J-Lat A1 cells (B) and CD4+ T cells (C) were treated with 12 nM of PEP005 for 24 hours, the cell viability was examined with the MTT assay and the S-phase cell cycle progression was evaluated after BrdU incorporation using BrdU ELISA. 25-50 μM Etoposide or 100-150 μM Doxorubicin (Doxo) served as positive controls for MTT and BrdU assays respectively. Statistical analysis was performed in comparison with controls. **, p<0.01.\n(§2) Cells were placed in 96-well plates and incubated for 24 or 72 h hrs with compounds. Cell viability was measured using MTT assay (Roche Laboratories), and cell proliferation/S-phase progression was determined by using BrdU ELISA kit (Cell signaling, #1863)."}, "HIV-1 IIIB": {"system": "HIV-1 IIIB", "test": "HIV-1 infection of primary CD4+ T cells pre-treated with PEP005 (RT-qPCR, p24 ELISA)", "format": "cell-based", "conditions": "pre-treatment with 12 or 24 nM PEP005; 3 and 5 days after HIV infection", "description": "FIG. 12: PEP005 down-modulates the expression of CD4, CCR5 and CXCR4 and inhibits HIV infection of primary CD4+ T cells ex vivo. (A) PEP005 inhibits expression of HIV receptors/co-receptors. […] The expression of CD4, CCR5 and CXCR4 genes was evaluated using RT-qPCR after normalizing for GAPDH. (B) and (C) PEP005 inhibits HIV infection of primary CD4+ T cells ex vivo. Primary CD4+ T cells were pre-treated with 12 or 24 nM PEP005 overnight and infected with the virus. The CD4+ T cells were incubated for 5 days without PEP005. The cells were collected for RT-qPCR targeting the HIV LTR region (B), or supernatants were collected for p24 ELISA (C). *, p<0.05; **, p<0.01.\nPrimary CD4+ T cells were isolated from peripheral blood samples of healthy HIV-negative donors and were pre-treated with PEP005 overnight. The CD4+ T cells were infected with HIV-1 (HIV-1 IIIB expanded in Jurkat T cells, 100 ng p24-gag) through spinoculation as described previously. Following an exposure of 24 hrs to HIV, the cells were washed. Cell supernatants were collected and HIV p24 levels were measured by ELISA. The cells were also collected for RNA extraction and measurement of viral transcripts by RT-qPCR."}, "[3]": {"system": "J-Lat A1 cells, U1 cells, primary CD4+ T cells", "test": "Cell proliferation / S-phase progression by BrdU ELISA", "format": "cell-based", "conditions": "U1 cells or primary CD4+ T cells, 12 nM PEP005, 24 hours", "description": "as §1, §2"}, "primary CD4+ T cells": {"system": "primary CD4+ T cells", "test": "Pro-inflammatory cytokine expression in primary CD4+ T cells (RT-qPCR)", "format": "cell-based, human", "conditions": "CD4+ T cells of healthy HIV-negative donors, 6 or 12 nM PEP005, 24 or 72 hours", "description": "CD4+ T cells were isolated from healthy donors and treated with 6 or 12 nM of PEP005 for 24 or 72 hours, and the relative expression of TNF-α (A), IFN-γ (B), IL-2 (C), and IL-6 (D) was quantified using RT-qPCR and normalized to GAPDH internal control."}, "[4]": {"system": "NF-κB/p65 binding to HIV LTR", "test": "ChIP-qPCR of NF-κB/p65 binding to the HIV LTR in J-Lat A1 cells", "format": "cell-based", "conditions": "12 nM PEP005", "description": "FIG. 4: PEP005-induced HIV reactivation is mediated through PKCδ/θ-IκBα/ε-NF-κB signaling. (A) PEP005-induced HIV reactivation is suppressed by inhibition of the PKCδ/θ. J-Lat A1 cells were treated with 6 nM of PEP005 in the presence of 1, 2 or 5 μM of PKC inhibitor (PKCθ/δ inhibitor; Milipore/Calbiochem (539649)) and evaluated for GFP expression by RT-qPCR. (B) NF-κB inhibition partially suppresses PEP005-induced HIV reactivation in J-Lat A1 cells. J-Lat A1 cells were treated with 6 nM of PEP005 in the presence of 2.5 μM Bay 11-7082, an NF-κB inhibitor, and were evaluated for GFP expression by RT-qPCR. (C) J-Lat A1 cells were treated with PEP005 or alternatively with PKC inhibitor alone or in the presence of PEP005 and the relative binding of NF-κB to the HIV LTR was determined using ChIP-qPCR.\nChromatin immunoprecipitation (ChIP): ChIP assay was performed as previously described. Briefly, 1×10^6 J-Lat A1 cells were incubated with PEP005, or PKCδ/θ inhibitor (PKGδi, Millipore/Calbiochem), fixed in 1% formaldehyde then resuspended in lysis buffer containing 1% SDS, 10 mM EDTA, 50 mM Tris-HCl, pH 8.1 (ChIP Assay Kit, Millipore) and protease inhibitor cocktail (Sigma-Aldrich). […] DNA was extracted (Qiagen PCR purification kit) and quantitative real-time PCR was performed using Agilent Brilliant Ultra-Fast SYBR Green QPCR reagent using the 7500 real-time PCR System. […]"}, "[5]": {"system": "latent HIV in primary CD4+ T cells", "test": "Ex vivo HIV transcription in primary CD4+ T cells from HIV infected individuals on suppressive ART (RT-qPCR)", "format": "cell-based", "experimental": "Primary CD4+ T cells were isolated from peripheral blood of HIV infected individuals on suppressive ART and treated with 6 or 12 nM PEP005, 200 ng/ml PMA plus 2 μM lonomycin, or DMSO for 6 hours. Induction of HIV transcription was measured using RT-qPCR for the 5′ LTR region or Poly A region of the virus. **, p<0.01.\nPrimary CD4+ T cells were isolated from the peripheral blood of HIV positive individuals on suppressive ART and treated with 12 nM PEP005 alone or in combination with JQ1 for 6 hours, and HIV transcription was quantified using RT-qPCR for the 5′ LTR region or Poly A region of the virus.\nPrimary CD4+ T cells were isolated from the peripheral blood of HIV positive individuals on suppressive ART and treated with 12 nM PEP005 alone or in combination with JQ1 for 48 hours, and HIV transcription was quantified using RT-qPCR for the 5′ LTR region or Poly A region of the virus.\nPrimary CD4+ T cells were isolated from the peripheral blood of HIV positive individuals on suppressive ART and treated with 12 nM PEP005 alone or in combination with JQ1 for 6 or 48 hours, and HIV transcription was quantified using RT-qPCR for the 5′ LTR region or Poly A region of the virus.\nPeripheral blood samples were collected from 13 HIV-infected individuals receiving suppressive ART for >3 years except for one patient. All subjects had suppression of plasma viremia for more than 6 months (Average 5.84 years). At the time of the study enrollment, CD4+ T cell counts in peripheral blood samples ranged from 264 to 1100 cells/mm^3 (Average 639 cell/mm^3) and plasma viral loads were <20 copies per ml as measured by qPCR (Table 1). Isolation of the peripheral blood mononuclear cells (PBMC) and purification of CD4+ T cells using the EasySep kit ([sequence] Technologies Inc. Vancouver, BC, Canada) were performed as previously described [24]. The purified CD4+ T cells were plated at a density of 1×10^6 cells/ml and treated with 200 ng/ml PMA plus 2 μM Ionomycin, 6-12 nM PEP005, 2 μM of JQ1, or 12 nM PEP005 plus 2 μM JQ1 for 6 hrs or 48 hrs and the cells were collected for RNA purification."}},
  "data": [
    {"smiles": "C/C=C(/C)C(=O)O[C@H]1C(C)=C[C@]23C(=O)[C@@H](C=C(CO)[C@@H](O)[C@]12O)[C@H]1[C@@H](C[C@H]3C)C1(C)C", "note": "[PEP005, (1aR,2S,5R,5aS,6S,8aS,9R,10aR)-5,5a-Dihydroxy-4-(hydroxymethyl)-1,1,7,9-tetramethyl-11-oxo-1a,2,5,5a,6,9,10,10a-octahydro-1H-2,8a-methanocyclopenta[a]cyclpropa[e][10]annulen-6-yl (2Z)-2-methylbut-2-enoate]", "values": [
      {"measurement": "expression of NF-κB/p65", "setting": "[1]; 12 nM PEP005", "value": "did not change"},
      {"measurement": "phosphorylation of IκB isoforms", "setting": "[1]; 12 nM PEP005", "value": "induced phosphorylation of IκBα and IκBε, but not of IκBβ"},
      {"measurement": "expression of PKC proteins", "setting": "[1]; 12 nM PEP005, 1 hr", "value": "modest up-regulation of PKCδ"},
      {"measurement": "phosphorylation of Ser643/Ser676 in PKCδ/θ", "setting": "[1]; 12 nM PEP005, as early as 30 minutes post treatment", "value": "greater than a two-fold increase"},
      {"measurement": "cellular toxicity (MTT)", "setting": "[2]", "value": "minimal levels of cellular toxicity"},
      {"measurement": "HIV gene expression after HIV infection (RT-qPCR, HIV LTR region)", "setting": "HIV-1 IIIB", "value": "dampened HIV gene expression"},
      {"measurement": "viral replication after HIV infection (p24 ELISA)", "setting": "HIV-1 IIIB", "value": "decreased the level of viral replication"},
      {"measurement": "proportion of cells in S-phase (BrdU)", "setting": "[3]", "value": "did not induce any significant increase"},
      {"measurement": "expression of TNF-α, IFN-γ, IL-2, and IL-6", "setting": "primary CD4+ T cells", "value": "no significant increase"},
      {"measurement": "expression of TNF-α", "setting": "primary CD4+ T cells; not statistically significant", "value": "tendency towards an up-regulation"},
      {"measurement": "increase in NF-κB/p65 binding to HIV LTR region", "setting": "[4]", "value": 6, "unit": "fold"},
      {"measurement": "individuals with increase in HIV transcription, 5′ LTR region", "setting": "[5]; 6 nM PEP005, 6 hrs", "value": "2 out of 7"},
      {"measurement": "donors with 2 or >2 fold increase in full-length HIV transcripts, poly A region", "setting": "[5]; 12 nM PEP005", "value": "5 of the 6"},
      {"measurement": "HIV RNA copy number in 1 μg of total RNA from CD4+ T cells", "setting": "[5]; 12 nM PEP005, 6 hr, vs control treatment", "value": "significantly induced latent HIV reactivation"},
      {"measurement": "individuals with HIV transcription, 5′ LTR region", "setting": "[5]; 12 nM PEP005, 6 hrs", "value": "5 out of 7"},
      {"measurement": "donors with 2 fold or >2 fold increase in full-length HIV transcripts, poly A region", "setting": "[5]; After 6 hours of PEP005 treatment", "value": "5 of the 7"}
    ]}
  ]
}
